Laboratory results as given in ChEMBL document CHEMBL1933047, “Novel poly(ADP-ribose) polymerase-1 inhibitors” (Bioorg Med Chem Lett, 2012).
pIC50: −log10 of the molar value.

Legend:
[1] = target: Poly [ADP-ribose] polymerase 1 (Rattus norvegicus) (UniProt P27008); experiment: Inhibition of PARP1 in rat PC12 cells assessed as NAD+ recovery at 1 uM pre-treated for 1 hr before hydrogen peroxide addition followed by washout and compound treated again for 1 hr relative to control; type: cell-based; settings: PC-12
Chain of Poly [ADP-ribose] polymerase 1 (Rattus norvegicus) (P27008 whole entry): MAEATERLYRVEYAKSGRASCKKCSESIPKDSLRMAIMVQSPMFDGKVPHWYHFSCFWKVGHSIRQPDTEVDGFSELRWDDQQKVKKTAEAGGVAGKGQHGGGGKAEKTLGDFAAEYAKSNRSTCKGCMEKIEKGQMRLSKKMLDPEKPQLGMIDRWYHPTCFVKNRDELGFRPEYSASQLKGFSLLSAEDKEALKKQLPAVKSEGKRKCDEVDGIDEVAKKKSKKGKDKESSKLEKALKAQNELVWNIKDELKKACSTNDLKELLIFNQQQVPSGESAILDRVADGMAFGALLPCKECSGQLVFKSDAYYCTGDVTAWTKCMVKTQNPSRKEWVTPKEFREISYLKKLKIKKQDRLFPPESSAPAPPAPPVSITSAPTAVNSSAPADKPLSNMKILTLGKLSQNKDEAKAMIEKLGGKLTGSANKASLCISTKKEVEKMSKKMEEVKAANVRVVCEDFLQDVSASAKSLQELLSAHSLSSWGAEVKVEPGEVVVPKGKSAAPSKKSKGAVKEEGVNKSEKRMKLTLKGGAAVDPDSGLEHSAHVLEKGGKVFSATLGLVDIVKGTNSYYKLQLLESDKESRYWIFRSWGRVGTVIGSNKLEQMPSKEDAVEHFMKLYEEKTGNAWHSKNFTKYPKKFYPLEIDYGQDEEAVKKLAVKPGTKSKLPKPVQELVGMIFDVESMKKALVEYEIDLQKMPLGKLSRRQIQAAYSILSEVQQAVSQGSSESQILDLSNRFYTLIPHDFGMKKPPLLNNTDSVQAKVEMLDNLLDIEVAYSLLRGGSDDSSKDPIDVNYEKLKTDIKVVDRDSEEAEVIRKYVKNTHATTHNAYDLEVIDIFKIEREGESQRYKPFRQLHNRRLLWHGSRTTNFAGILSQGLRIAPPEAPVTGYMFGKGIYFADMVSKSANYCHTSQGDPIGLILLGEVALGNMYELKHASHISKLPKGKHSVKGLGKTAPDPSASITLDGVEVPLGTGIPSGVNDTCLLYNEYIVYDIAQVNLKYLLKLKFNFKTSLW

[2] = target: Poly [ADP-ribose] polymerase 1 (Rattus norvegicus) (UniProt P27008); experiment: Inhibition of PARP1 in rat PC12 cells assessed as NAD+ recovery at 30 uM pre-treated for 1 hr before hydrogen peroxide addition followed by washout and compound treated again for 1 hr relative to 5H-phenanthridin-6-one; type: cell-based; settings: PC-12
[3] = target: Poly [ADP-ribose] polymerase 1 (Rattus norvegicus) (UniProt P27008); experiment: Inhibition of PARP1 in rat PC12 cells assessed as NAD+ recovery at 10 uM pre-treated for 1 hr before hydrogen peroxide addition followed by washout and compound treated again for 1 hr relative to 5H-phenanthridin-6-one; type: cell-based; settings: PC-12
[4] = target: Poly [ADP-ribose] polymerase 1 (Homo sapiens, UniProt P09874); experiment: Inhibition of recombinant human PARP1 by in vitro assay
Chain of Poly [ADP-ribose] polymerase 1 (P09874 whole entry): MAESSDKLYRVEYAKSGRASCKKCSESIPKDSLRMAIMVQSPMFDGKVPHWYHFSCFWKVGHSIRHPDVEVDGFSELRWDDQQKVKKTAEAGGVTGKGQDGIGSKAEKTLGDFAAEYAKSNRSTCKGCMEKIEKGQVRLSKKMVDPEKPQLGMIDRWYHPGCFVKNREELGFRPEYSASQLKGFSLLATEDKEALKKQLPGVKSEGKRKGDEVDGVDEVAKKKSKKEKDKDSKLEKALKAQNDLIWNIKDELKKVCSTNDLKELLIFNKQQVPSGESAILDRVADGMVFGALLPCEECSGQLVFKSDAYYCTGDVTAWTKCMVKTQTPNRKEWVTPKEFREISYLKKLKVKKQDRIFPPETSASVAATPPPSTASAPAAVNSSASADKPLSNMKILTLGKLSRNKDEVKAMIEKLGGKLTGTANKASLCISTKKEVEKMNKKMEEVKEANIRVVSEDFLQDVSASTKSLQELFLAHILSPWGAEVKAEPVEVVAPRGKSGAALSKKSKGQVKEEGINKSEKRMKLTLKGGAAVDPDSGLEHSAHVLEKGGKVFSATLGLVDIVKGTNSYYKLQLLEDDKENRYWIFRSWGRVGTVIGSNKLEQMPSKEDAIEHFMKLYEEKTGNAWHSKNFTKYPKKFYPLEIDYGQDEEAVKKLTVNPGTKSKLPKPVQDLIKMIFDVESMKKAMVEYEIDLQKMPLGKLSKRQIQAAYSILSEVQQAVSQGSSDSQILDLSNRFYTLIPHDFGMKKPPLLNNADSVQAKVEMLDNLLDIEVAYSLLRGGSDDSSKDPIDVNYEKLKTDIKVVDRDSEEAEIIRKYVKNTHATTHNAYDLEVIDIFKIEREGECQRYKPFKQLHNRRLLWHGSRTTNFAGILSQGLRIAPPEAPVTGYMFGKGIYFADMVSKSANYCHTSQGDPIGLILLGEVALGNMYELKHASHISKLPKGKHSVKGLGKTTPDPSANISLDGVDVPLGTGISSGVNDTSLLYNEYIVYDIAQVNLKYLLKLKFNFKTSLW

[5] = target: Poly [ADP-ribose] polymerase 1 (Rattus norvegicus) (UniProt P27008); experiment: Inhibition of PARP1 in rat PC12 cells assessed as NAD+ recovery at 3 uM pre-treated for 1 hr before hydrogen peroxide addition followed by washout and compound treated again for 1 hr relative to 5H-phenanthridin-6-one; type: cell-based; settings: PC-12

Structure (SMILES) | inhibition [1] | inhibition [2] | inhibition [3] | pIC50 [4] | inhibition [5]
O=C(Cn1cncn1)c1ccc2[nH]c3c4c(c5c(c3c2c1)C(=O)NC5=O)CCC4 | 25% | 55% |  |  | 
O=C(CCC(=O)c1ccc2[nH]c3c4c(c5c(c3c2c1)C(=O)NC5=O)CCC4)NCCO | 24% |  | 26% |  | 
CCN(CC)CC(=O)c1ccc2[nH]c3c4c(c5c(c3c2c1)C(=O)NC5=O)CCC4 | 10% | 70% |  |  | 
CN1N=C(c2ccc3[nH]c4c5c(c6c(c4c3c2)C(=O)NC6=O)CCC5)CCC1=O | 29% |  |  |  | 
CC(C)(C)OC(=O)NCCNC(=O)CCC(=O)c1ccc2[nH]c3c4c(c5c(c3c2c1)C(=O)NC5=O)CCC4 | 26% | 48% |  |  | 
NCCNC(=O)CCC(=O)c1ccc2[nH]c3c4c(c5c(c3c2c1)C(=O)NC5=O)CCC4 | 14% |  | 32% |  | 
CN(CC(=O)OC(C)(C)C)CC(=O)c1ccc2[nH]c3c4c(c5c(c3c2c1)C(=O)NC5=O)CCC4 | 14% | 73% |  | 7.72 | 
CC(C)(C)OC(=O)N1CCN(C(=O)CCC(=O)c2ccc3[nH]c4c5c(c6c(c4c3c2)C(=O)NC6=O)CCC5)CC1 | 19% | 29% |  |  | 
CCN(CC)C(=O)CCC(=O)c1ccc2[nH]c3c4c(c5c(c3c2c1)C(=O)NC5=O)CCC4 | 41% | 78% |  |  | 
O=C1CCC(c2ccc3[nH]c4c5c(c6c(c4c3c2)C(=O)NC6=O)CCC5)=NN1 | 29% |  | 49% |  | 
O=C1NC(=O)c2c1c1c(c3[nH]c4ccccc4c23)CCC1 | 30% | 42% |  |  | 

Second part, the molecule after the results:

inhibition [1] | inhibition [2] | inhibition [3] | pIC50 [4] | inhibition [5] | Structure (SMILES)
39% | 98% |  |  |  | CC(C)(C)OC(=O)[C@@H]1CCCN1C(=O)CCC(=O)c1ccc2[nH]c3c4c(c5c(c3c2c1)C(=O)NC5=O)CCC4
11% |  |  |  |  | NC(=O)[C@@H]1CCCN1C(=O)CCC(=O)c1ccc2[nH]c3c4c(c5c(c3c2c1)C(=O)NC5=O)CCC4
10% |  |  |  |  | O=C(CCC(=O)N1CCNCC1)c1ccc2[nH]c3c4c(c5c(c3c2c1)C(=O)NC5=O)CCC4
38% | 65% |  |  |  | O=C(CCC(=O)N1CCOCC1)c1ccc2[nH]c3c4c(c5c(c3c2c1)C(=O)NC5=O)CCC4
38% |  | 63% | 7.89 |  | O=C(CN1CCOCC1)c1ccc2[nH]c3c4c(c5c(c3c2c1)C(=O)NC5=O)CCC4
14% | 45% |  |  |  | CN(CC(=O)O)CC(=O)c1ccc2[nH]c3c4c(c5c(c3c2c1)C(=O)NC5=O)CCC4
24% | 88% |  |  |  | CC(C)(C)OC(=O)[C@@H]1CCCN1CC(=O)c1ccc2[nH]c3c4c(c5c(c3c2c1)C(=O)NC5=O)CCC4
55% | 59% |  |  |  | O=C(CCC(=O)N1CCCCC1)c1ccc2[nH]c3c4c(c5c(c3c2c1)C(=O)NC5=O)CCC4
8% | 42% |  |  |  | O=C(O)CCC(=O)c1ccc2[nH]c3c4c(c5c(c3c2c1)C(=O)NC5=O)CCC4
14% | 50% |  |  |  | O=C(CN1CCCCC1)c1ccc2[nH]c3c4c(c5c(c3c2c1)C(=O)NC5=O)CCC4
27% | 100% |  | 7.92 |  | COC(=O)[C@@H]1CCCN1CC(=O)c1ccc2[nH]c3c4c(c5c(c3c2c1)C(=O)NC5=O)CCC4
32% | 92% |  |  |  | O=C(CCC(=O)N1CCCC1)c1ccc2[nH]c3c4c(c5c(c3c2c1)C(=O)NC5=O)CCC4
4% |  |  | 8.70 | 14% | O=C(CCC(=O)N1CCC[C@H]1C(=O)O)c1ccc2[nH]c3c4c(c5c(c3c2c1)C(=O)NC5=O)CCC4
7% |  | 43% |  |  | CN1CCN(CC(=O)c2ccc3[nH]c4c5c(c6c(c4c3c2)C(=O)NC6=O)CCC5)CC1
14% | 43% |  | 8.15 |  | O=C(CN1CCC[C@H]1C(=O)O)c1ccc2[nH]c3c4c(c5c(c3c2c1)C(=O)NC5=O)CCC4
